Measurements taken from US6071905A, “Biologically active substance on the basis of tetracyclic nitrogen heterocycles of pyrimidine row” (Natural Drug Sciences, LLC, priority 1998, dated 2000).
Converted amounts (≈) assume the structure as drawn.

Legend:
[1] = test system: M. smegmatis ATCC607; assay: series culture (dilution) method, MIC, M. smegmatis ATCC607; assay type: cell-based, Mycobacterium smegmatis; conditions: Mycolicibacterium smegmatis, 72 hour cultivation, 37° C., medium N-1
[2] = test system: M. tuberculosis H37Rv; assay: series culture (dilution) method, MIC, M. tuberculosis H37Rv; assay type: cell-based; conditions: Mycobacterium tuberculosis, 72 hour cultivation, 37° C., Soton medium with 10% horse serum
Method: In order to determine antimicrobial activity standard strains Mycobacterium smegmatis ATCC607 and Mycobacterium tuberculosis H37RV were used which are sensitive to all antimicrobial compounds.
The evaluation of antimicrobial action was performed with the method of series culture (5). M. smegmatis ATCC607 for seeding was grown on liquid synthetic medium N-1.
The compounds were dissolved in dimethyl sulfoxide (DMSO) and tittered in medium N-1, so that this compound was contained in separate test tubes with the medium in concentration of 200-0.025 mg/l. The concentration of the compound in the medium of neighboring test tubes was differed twice. For the control, DMSO which was tittered the same as the compound, was utilized. Test strain of bacteria was added in the quantity 1-2×10^6 ml. The result was considered after 72 hour cultivation of test tubes at 37° C.
For M tuberculosis H37Rv conditions of experiment were identical, with the exception of the fact that bacteria were grown on the Soton medium which contains 10% horse serum, and density of microbial suspension during seeding was (5.0×10^6) in ml.
As the control, in both cases known tuberculostatic compounds were utilized.

[3] = test system: M. bovis bovinus 8; assay type: in vivo, M. bovis bovinus 8; no-breed male mice; conditions: for Coefficient of lung mass / Index of damage lungs / Perished animals: 42 day after infection; for Coefficient of lung mass / Index of damage lungs / Seeding M.tub.: dose not given; for Perished animals: tested compounds orally (10, 20 and 30 mg/kg), streptomycin intramuscularly; for Seeding M.tub.: from spleen, CFU per 100 mg
[4] = in vivo; conditions: mouse
[5] = test system: primary culture of human lymphocytes; assay: interferon-inducing activity in primary culture of human lymphocytes (immuno-ferment assay); assay type: cell-based; conditions: 24 hours of incubation
[6] = test system: herpes virus I of the type (VPG-1/Leningrad/248/88); assay: antiviral action on herpes virus in Vero cells (cytopathogenic action); assay type: cell-based; conditions: 36 hours, 38° C.
[7] = test system: C. trachomatis D323; assay: action on Chlamydia trachomatis in cell culture (McCoy and L929); assay type: cell-based; conditions: 48 hours
[8] = test system: Vero; assay: control of compounds (toxicity) on Vero cell culture; assay type: cell-based
[9] = test system: M. avium 84; assay: action on pathogenic mycobacteria from patients, Lowenstein-Jensen medium, M. avium 84; assay type: cell-based, Mycobacterium avium; conditions: title: concentration of compound 10.0 g/l; 30 days

With `O=c1c2cc(Cl)ccc2oc2nc3n(c(=O)c12)CCCS3` [R1=H, R2=Cl, 3-chloro-5-oxo-5H-[1]-benzopyrano-[5,6-b]-4-oxo-4H-[1,2]-pyrimido-1,4,5,6-tetrahydro-1,3-thiazine] the MIC [1] was 10 µg/mL (≈ 31.2 µM) and the MIC [2] was 10 µg/mL (≈ 31.2 µM).
With `O=c1c2cc(Cl)cc(Cl)c2oc2nc3n(c(=O)c12)CCCS3` [R1=R2=Cl, 1,3-dichloro-5-oxo-5H-[1]-benzopyrano-[5,6-b]-4-oxo-4H-[1,2]-pyrimido-1,4,5,6-tetrahydro-1,3-thiazine] the “Coefficient of lung mass” value [3] was 2.42 con. units, the “Index of damage lungs” value [3] was 2.5 con. unit and the Perished animals [3] was 0%. For the same molecule, the “Seeding M.tub.” value [3] was 195 CFU, the MIC [1] was 1 µg/mL (≈ 2.82 µM) and the LD50 at 336 h [4] was > 1500 mg/kg. The MIC [2] was 0.3 µg/mL (≈ 0.845 µM).
With `O=c1c2cc(Br)cc(Br)c2oc2nc3n(c(=O)c12)CCCS3` [R1=R2=Br, 1,3-dibromo-5-oxo-5H-[1]-benzopyrano-[5,6-b]-4-oxo-4H-[1,2]-pyrimido-1,4,5,6-tetrahydro-1,3-thiazine] the “Content of IFN in induction mixture” value ([5]; 1 μg/ml) was 4.0 ± 0.5 ME/3*10^4 limph./ml, the “Content of IFN in induction mixture” value ([5]; 10 μg/ml) was 23 ± 1.0 ME/3*10^4 limph./ml and the “Content of IFN in induction mixture” value ([5]; 100 μg/ml) was 47 ± 0.8 ME/3*10^4 limph./ml. The “Coefficient of lung mass” value [3] was 2.30 con. units, the “Index of damage lungs” value [3] was 2.3 con. unit and the Perished animals [3] was 0%. For the same molecule, the “Seeding M.tub.” value [3] was 180 CFU, the MIC [1] was 0.1 µg/mL (≈ 0.225 µM) and the LD50 at 336 h [4] was > 1500 mg/kg. The MIC [2] was 0.1 µg/mL (≈ 0.225 µM).
`CC[C@@H](CO)NCCN[C@@H](CC)CO` [Ethambutol, reference compound] gave an MIC [1] of 5 µg/mL (≈ 24.5 µM) and an MIC [2] of 5 µg/mL (≈ 24.5 µM).
For `Nc1nc2c(ncn2COCCO)c(=O)[nH]1` [Acyclovir, reference compound], the “number of unchanged cells in 100 fields” value ([6]; 10 mg/l) was 8000.
In the case of `O=c1c2ccccc2oc2nc3n(c(=O)c12)CCCS3` [R1=R2=H, 5-oxo-5H-[1]-benzopyrano-[5,6-b]-4-oxo-4H-[1,2]-pyrimido-1,4,5,6-tetrahydro-1,3-thiazine], the “Number of unchanged cells” value ([7]; 10 mg/l) is reported as 7.200, the MIC [1] is reported as 0.3 µg/mL (≈ 1.05 µM) and the LD50 at 336 h [4] is reported as > 1500 mg/kg. For the same molecule, the “toxicity of compounds to cells” value ([8]; 100 mg/l) was “toxic”, the “number of unchanged cells in 100 fields” value ([6]; 10 mg/l) was 3000 and the “number of unchanged cells in 100 fields” value ([6]; 50 mg/l) was 6000. For the same molecule, the MIC [2] was 0.6 µg/mL (≈ 2.1 µM).
For `[H]/N=C(/N)N[C@H]1[C@H](O)[C@@H](O)[C@H](O[C@@H]2O[C@@H](C)[C@](O)(C=O)[C@H]2O[C@@H]2O[C@@H](CO)[C@H](O)[C@@H](O)[C@@H]2NC)[C@@H](N/C(N)=N\[H])[C@@H]1O` [Streptomycin, reference compound], the “Coefficient of lung mass” value [3] was 2.47 con. units, the “Index of damage lungs” value [3] was 2.45 con. unit and the Perished animals [3] was 0%. The “Seeding M.tub.” value [3] was 200 CFU, the MIC [1] was 0.15 µg/mL (≈ 0.258 µM) and the “antimicrobial action, M. avium 84” value [9] was “growth”. For the same molecule, the MIC [2] was 0.2 µg/mL (≈ 0.344 µM).
`O=c1c2cc(O)ccc2oc2nc3n(c(=O)c12)CCCS3` [R1=H, R2=OH, 3-hydroxy-5-oxo-5H-[1]-benzopyrano-[5,6-b]-4-oxo-4H-[1,2]-pyrimido-1,4,5,6-tetrahydro-1,3-thiazine] showed an MIC [1] of 100 µg/mL (≈ 331 µM) and an MIC [2] of 50 µg/mL (≈ 165 µM).
With `CC1COc2c(N3CCN(C)CC3)c(F)cc3c(=O)c(C(=O)O)cn1c23` (centres unmarked) [Ofloxacin, reference compound] the MIC [1] was 0.5 µg/mL (≈ 1.38 µM) and the MIC [2] was 0.5 µg/mL (≈ 1.38 µM).
Work on `O=c1c2cc([N+](=O)[O-])cc(Br)c2oc2nc3n(c(=O)c12)CCCS3` [R1=Br, R2-NO2, 1-bromo-3-nitro-5-oxo-5H-[1]-benzopyrano-[5,6-b]-4-oxo-4H-[1,2]-pyrimido-1,4,5,6-tetrahydro-1,3-thiazine] yielded an MIC [1] of 100 µg/mL (≈ 244 µM) and an MIC [2] of 25 µg/mL (≈ 60.9 µM).
With `COc1ccc2oc3nc4n(c(=O)c3c(=O)c2c1)CCCS4` [R1=H, R2=OCH3, 3-methoxy-5-oxo-5H-[1]-benzopyrano-[5,6-b]-4-oxo-4H-[1, 2]-pyrimido-1,4,5,6-tetrahydro-1,3-thiazine] the MIC [1] was 100 µg/mL (≈ 316 µM) and the MIC [2] was 50 µg/mL (≈ 158 µM).
For `CO[C@H]1/C=C/O[C@@]2(C)Oc3c(C)c(O)c4c(O)c(cc(O)c4c3C2=O)NC(=O)/C(C)=C\C=C\[C@H](C)[C@H](O)[C@@H](C)[C@@H](O)[C@@H](C)[C@H](OC(C)=O)[C@@H]1C` [Rifamycin, reference compound], the MIC [1] was 0.25 µg/mL (≈ 0.358 µM), the “antimicrobial action, M. avium 84” value [9] was “growth” and the MIC [2] was 0.05 µg/mL (≈ 0.0717 µM).
For `O=c1c2cc([N+](=O)[O-])cc(Cl)c2oc2nc3n(c(=O)c12)CCCS3` [R1=Cl, R2=NO2, 1-chloro-3-nitro-5-oxo-5H-[1]-benzopyrano-[5,6-b]-4-oxo-4H-[1,2]-pyrimido-1,4,5,6-tetrahydro-1,3-thiazine], the “Content of IFN in induction mixture” value ([5]; 1 μg/ml) was 3.6 ± 0.5 ME/3*10^4 limph./ml, the “Content of IFN in induction mixture” value ([5]; 10 μg/ml) was 18 ± 1.6 ME/3*10^4 limph./ml and the MIC [1] was 100 µg/mL (≈ 273 µM). It also gave an MIC [2] of 50 µg/mL (≈ 137 µM).
With `NNC(=O)c1ccncc1` [Isoniazid, hydrazide of izonicotinic acid, reference compound] the MIC [1] was 1.5 µg/mL (≈ 10.9 µM), the “antimicrobial action, M. avium 84” value [9] was “growth” and the MIC [2] was 0.1 µg/mL (≈ 0.729 µM).
In the case of `O=c1c2cc(Br)ccc2oc2nc3n(c(=O)c12)CCCS3` [R1=H, R2=Br, 3-bromo-5-oxo-5H-[1]-benzopyrano-[5,6-b]-4-oxo-4H-[1,2]-pyrimido-1,4,5,6-tetrahydro-1,3-thiazine], the “Content of IFN in induction mixture” value ([5]; 1 μg/ml) is reported as 14 ± 0.5 ME/3*10^4 limph./ml, the “Content of IFN in induction mixture” value ([5]; 10 μg/ml) is reported as 84 ± 2.5 ME/3*10^4 limph./ml and the “Content of IFN in induction mixture” value ([5]; 100 μg/ml) is reported as 192 ± 1.6 ME/3*10^4 limph./ml. For the same molecule, the “Number of unchanged cells” value ([7]; 100 mg/l) was 7.000, the MIC [1] was 50 µg/mL (≈ 137 µM) and the MIC [2] was 25 µg/mL (≈ 68.5 µM).
In the case of `O=c1c2cc([N+](=O)[O-])ccc2oc2nc3n(c(=O)c12)CCCS3` [R1=H, R2=NO2, 3-nitro-5-oxo-5H-[1]-benzopyrano-[5,6-b]-4-oxo-4H-[1,2]-pyrimido-1,4,5,6-tetrahydro-1,3-thiazine], the “Content of IFN in induction mixture” value ([5]; 1 μg/ml) is reported as 4.2 ± 0.8 ME/3*10^4 limph./ml, the “Content of IFN in induction mixture” value ([5]; 10 μg/ml) is reported as 20 ± 1.2 ME/3*10^4 limph./ml and the “Content of IFN in induction mixture” value ([5]; 100 μg/ml) is reported as 48 ± 1.2 ME/3*10^4 limph./ml. For the same molecule, the MIC [1] was 100 µg/mL (≈ 302 µM), the “toxicity of compounds to cells” value ([8]; 50 mg/l) was “toxic” and the “toxicity of compounds to cells” value ([8]; 100 mg/l) was “toxic”. For the same molecule, the “number of unchanged cells in 100 fields” value ([6]; 10 mg/l) was 6000 and the MIC [2] was 50 µg/mL (≈ 151 µM).
